Target: T1, recombinant, N-terminally GST-tagged ATAD2 bromodomain amino acids 981-1108 (Homo sapiens, UniProt Q6PL18)
T1 construct: ATAD2 bromodomain amino acids 981-1108; made in house; host or cells: E. coli
T1 sequence (Q6PL18 981-1108): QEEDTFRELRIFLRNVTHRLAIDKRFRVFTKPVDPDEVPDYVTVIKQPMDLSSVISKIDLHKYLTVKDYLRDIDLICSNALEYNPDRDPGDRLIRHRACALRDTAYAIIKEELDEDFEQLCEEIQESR
Experiment: TR-FRET assay: disruption of the interaction between ATAD2 and acetylated Histone H4 (Ac-H4) peptide
Type: binding
Conditions: inhibition of ATAD2/Ac-H4 complex formation; 10 nM ATAD2, 50 nM Ac-H4 peptide
Source text: The ability of the compounds described in the present invention to disrupt the interaction between ATAD2 and acetylated Histone H4 (Ac-H4) was used as quantitative measure of their ATAD2-binding affinities.
To this end a TR-FRET assay which detects the binding of an Ac-H4-derived synthetic peptide (purchased from e.g. Biosyntan (Berlin, Germany)) of sequence HSGRGKGGGGKGLGK(Ac)GGAKRHRK-Biotin to recombinant, N-terminally GST-tagged ATAD2 bromodomain amino acids 981-1108. The protein was produced in-house via E. coli expression followed by GSH-Sepharose affinity- and Superdex S200-size exclusion chromatography purification.
Typically, 11 different concentrations of each compound (0.1 nM, 0.33 nM, 1.1 nM, 3.8 nM, 13 nM, 44 nM, 0.15 μM, 0.51 μM, 1.7 μM, 5.9 μM and 20 μM) were tested in duplicate within the same microtiter plate. To this end, 100-fold concentrated compound solutions (in DMSO) were previously prepared with a Precision Pippeting System (BioTek) by serial dilution (1:3.4) of 2 mM stocks in clear, low-volume 384-well microtiter source plates (Greiner Bio-One). Subsequently, 50 nl of compounds were transferred into black, low-volume test plates from the same supplier using a Hummingbird capillary based liquid handling instrument (Digilab). Tests were started by the addition of 2 μl of 2.5-fold concentrated ATAD2 solution (25 nM=10 nM final concentration in the 5 μl assay volume) in aqueous assay buffer [50 mM HEPES pH 7.5, 50 mM potassium fluoride (KF), 100 mM sodium chloride (NaCl), 0.25 mM CHAPS, 0.05% bovine serum albumine (BSA) and 1 mM dithiothreitol (DTT)] to the compounds in the test plate with a Multidrop dispenser (Thermo-Fisher). Test plates were then incubated 10′ at 22° C., in order to allow pre-equilibration of putative compound-ATAD2 complexes. Subsequently, 3 μl of a 1.67-fold concentrated solution containing Ac-H4 peptide (83.5 nM=50 nM final concentration) and TR-FRET detection reagents [16.7 nM Anti-GST-XL665 (Cisbio), =10 nM final concentration and 4.17 nM Lance EU W-1024 Streptavidin Europium Chelate (Perkin-Elmer)=2.5 nM final concentration were dispensed into the plates.
The mixture was further incubated in the dark for 1 hour at 22° C. Finally the inhibition of the formation of ATAD2/Ac-H4 complexes was assessed by measurement of the resonance energy transfer from the Streptavidin-Eu-Chelate to the anti-GST-XL665 antibody present in the reaction. To this end, the fluorescence emissions at 622 nm and 665 nm after excitation at 337 nm were measured in a TR-FRET reader, e.g. a Rubystar or Pherastar (both from BMG Lab Technologies) or a Viewlux (Perkin-Elmer) and the ratio of the emissions at 665 nm and at 622 nm was taken as indicator for the amount of ATAD2/Ac-H4 complexes in equilibrium.
The data were normalized using two sets of control wells (16 each). The first accounted for 100% ATAD2/Ac-H4 binding (0% inhibition), and contained all reaction components but DMSO instead of inhibitors. The second represented 0% ATAD2/Ac-H4 binding (100% inhibition), and included all assay components except ATAD2. IC50 values were calculated by fitting the normalized inhibition data to a 4-parameter logistic equation using either Screener software (Genedata) or a Bayer-proprietary analysis software.

| Compound | IC50 [nM] |
| --- | --- |
| Cc1ccc([C@@H](C)NCc2ccc(-c3ccc(Cl)c(C(=O)N[C@@H](CO)Cc4cc(F)c(C#N)cc4C)c3)o2)cc1 [Example 38, 2-chloro-N-[(2R)-1-(4-cyano-5-fluoro-2-methylphenyl)-3-hydroxypropan-2-yl]-5-[5-({[(1R)-1-(4-methylphenyl)ethyl]amino}methyl)-2-furyl]benzamide] | 365 |
| Cc1ccc([C@@H](C)NCc2ccc(-c3cc(C(=O)N[C@@H](CO)Cc4ccc(C#N)cc4)c(Cl)cc3Cl)o2)cc1 [Example 78, 2,4-dichloro-N-[(2R)-1-(4-cyanophenyl)-3-hydroxypropan-2-yl]-5-[5-({[(1R)-1-(4-methylphenyl)ethyl]amino}methyl)-2-furyl]benzamide] | 1230 |
| Cc1ccc([C@@H](C)NCc2ccc(-c3ccc(Cl)c(C(=O)N[C@@H](CC(=O)NCCCO)Cc4ccc(C#N)cc4)c3)o2)cc1 [Example 8, 2-chloro-N-{(2R)-1-(4-cyanophenyl)-4-[(3-hydroxypropyl)amino]-4-oxobutan-2-yl}-5-[5-({[(1R)-1-(4-methylphenyl)ethyl]amino}methyl)-2-furyl]benzamide] | 898 |
| Cc1ccc([C@@H](C)NCc2ccc(-c3ccc(Cl)c(C(=O)N[C@@H](CNC4CCN(CC(C)C)CC4)Cc4ccc(C#N)cc4)c3)o2)cc1 [Example 63] | 320 |
| Cc1ccc([C@@H](C)NCc2ccc(-c3ccc(Cl)c(C(=O)N[C@H](Cc4ccc(C#N)cc4)[C@H](O)CC(C)C)c3)o2)cc1 [Example 45, 2-chloro-N-[(2R,3R)-1-(4-cyanophenyl)-3-hydroxy-5-methylhexan-2-yl]-5-[5-({[(1R)-1-(4-methylphenyl)ethyl]amino}methyl)-2-furyl]benzamide] | 1800 |
| Cc1ccc([C@@H](C)NCc2ccc(-c3ccc(Cl)c(C(=O)N[C@@H](CNC4CCN(C)CC4)Cc4ccc(C#N)cc4)c3)o2)cc1 [Example 58, 2-chloro-N-{(2R)-1-(4-cyanophenyl)-3-[(1-methylpiperidin-4-yl)amino]propan-2-yl}-5-[5-({[(1R)-1-(4-methylphenyl)ethyl]amino}methyl)-2-furyl]benzamide] | 172 |
| Cc1ccc([C@@H](C)NCc2ccc(-c3ccc(Cl)c(C(=O)N[C@@H](CCN4CCN[C@@H](C)C4)Cc4ccc(C#N)cc4)c3)o2)cc1 [Example 28, 2-chloro-N-{(2R)-1-(4-cyanophenyl)-4-[(3S)-3-methylpiperazin-1-yl]butan-2-yl}-5-[5-({[(1R)-1-(4-methylphenyl)ethyl]amino}methyl)-2-furyl]benzamide] | 148 |
| CC(C)(NCc1ccc(-c2ccc(Cl)c(C(=O)NC(Cc3ccc(C#N)cc3)C(N)=O)c2)o1)c1ccc(Cl)cc1 (stereo not drawn) [Example 95] | 2820 |
| Cc1ccc([C@@H](C)NCc2ccc(-c3ccc(Cl)c(C(=O)N[C@H](Cc4ccc(C#N)cc4)CN(C)C)c3)o2)cc1 [Example 24, 2-chloro-N-[(2R)-1-(4-cyanophenyl)-3-(dimethylamino)propan-2-yl]-5-[5-({[(1R)-1-(4-methylphenyl)ethyl]amino}methyl)-2-furyl]benzamide] | 598 |
| Cc1ccc([C@@H](C)NCc2ccc(-c3ccc(Cl)c(C(=O)N[C@@H](CC(N)=O)Cc4ccc(C#N)cc4)c3)o2)cc1 [Example 3, N-[(2R)-4-amino-1-(4-cyanophenyl)-4-oxobutan-2-yl]-2-chloro-5-[5-({[(1R)-1-(4-methylphenyl)ethyl]amino}methyl)furan-2-yl]benzamide] | 927 |
| COc1cc(C#N)ccc1C[C@H](CO)NC(=O)c1cc(-c2ccc(CN[C@H](C)c3ccc(C)cc3)o2)ccc1Cl [Example 39, 2-chloro-N-[(2R)-1-(4-cyano-2-methoxyphenyl)-3-hydroxypropan-2-yl]-5-[5-({[(1R)-1-(4-methylphenyl)ethyl]amino}methyl)-2-furyl]benzamide] | 585 |
| Cc1ccc(C(C)NCc2ccc(-c3ccc(Cl)c(C(=O)N[C@@H](Cc4ccc(C#N)cc4)c4ncc[nH]4)c3)o2)cc1 (stereo in doubt) [Example 19, 2-chloro-N-[2-(4-cyanophenyl)-1-(1H-imidazol-2-yl)ethyl]-5-[5-({[(1S)-1-(4-methylphenyl)ethyl]amino}methyl)-2-furyl]benzamide] | 640 |
| Cc1ccc([C@@H](C)NCc2ccc(-c3ccc(Cl)c(C(=O)N[C@@H](CCN4CCOCC4)Cc4ccc(C#N)cc4)c3)o2)cc1 [Example 29, 2-chloro-N-[(2R)-1-(4-cyanophenyl)-4-(morpholin-4-yl)butan-2-yl]-5-[5-({[(1R)-1-(4-methylphenyl)ethyl]amino}methyl)-2-furyl]benzamide] | 675 |
| Cc1ccc([C@@H](C)NCc2ccc(-c3ccc(Cl)c(C(=O)N[C@@H](CC(=O)N(C)C)Cc4ccc(C#N)cc4)c3)o2)cc1 [Example 1, 2-Chloro-N-[(2R)-1-(4-cyanophenyl)-4-(dimethylamino)-4-oxobutan-2-yl]-5-[5-({[(1R)-1-(4-methylphenyl)ethyl]amino}methyl)furan-2-yl]benzamide] | 740 |
| Cc1ccc([C@@H](C)NCc2ccc(-c3ccc(Cl)c(C(=O)N[C@@H](CO)Cc4ccncc4)c3)o2)cc1 [Example 47, 2-chloro-N-[(2R)-1-hydroxy-3-(pyridin-4-yl)propan-2-yl]-5-[5-({[(1R)-1-(4-methylphenyl)ethyl]amino}methyl)-2-furyl]benzamide] | 2100 |
| Cc1ccc([C@@H](C)NCc2ccc(-c3ccc(Cl)c(C(=O)N[C@@H](CN[C@H]4CCCN(C)C4)Cc4ccc(C#N)cc4)c3)o2)cc1 [Example 65] | 121 |
| COc1cc(Cl)c(C(=O)N[C@@H](CN[C@H]2CC[C@@H](N)CC2)Cc2ccc(C#N)c(C)c2)cc1-c1ccc(CN[C@H](C)c2ccc(C)cc2)o1 [Example 88, N-[(2R)-1-[(4-aminocyclohexyl)amino]-3-(4-cyano-3-methylphenyl)propan-2-yl]-2-chloro-4-methoxy-5-[5-({[(1R)-1-(4-methylphenyl)ethyl]amino}methyl)-2-furyl]-benzamide] | 128 |
| Cc1ccc([C@@H](C)NCc2ccc(-c3ccc(Cl)c(C(=O)N[C@@H](CC(=O)N4CCCC4)Cc4ccc(C#N)cc4)c3)o2)cc1 [Example 9, 2-chloro-N-[(2R)-1-(4-cyanophenyl)-4-oxo-4-(pyrrolidin-1-yl)butan-2-yl]-5-[5-({[(1R)-1-(4-methylphenyl)ethyl]amino}methyl)-2-furyl]benzamide] | 749 |
| Cc1ccc([C@@H](C)NCc2ccc(-c3ccc(Cl)c(C(=O)N[C@H](Cc4ccc(C#N)cc4)[C@@H](O)CC(C)C)c3)o2)cc1 [Example 46, 2-chloro-N-[(2R,3S)-1-(4-cyanophenyl)-3-hydroxy-5-methylhexan-2-yl]-5-[5-({[(1R)-1-(4-methylphenyl)ethyl]amino}methyl)-2-furyl]benzamide] | 1100 |
| Cc1ccc([C@@H](C)NCc2ccc(-c3ccc(Cl)c(C(=O)N[C@H](Cc4ccc(C#N)cc4)C(C)(C)O)c3)o2)cc1 [Example 12, 2-chloro-N-[(2R)-1-(4-cyanophenyl)-3-hydroxy-3-methylbutan-2-yl]-5-[5-({[(1R)-1-(4-methylphenyl)ethyl]amino}methyl)-2-furyl]benzamide] | 668 |
| COc1cc(Cl)c(C(=O)N[C@@H](CN)Cc2ccc(C#N)cc2)cc1-c1ccc(CN[C@H](C)c2ccc(C)cc2)o1 [Example 83, N-[(2R)-1-amino-3-(4-cyanophenyl)propan-2-yl]-2-chloro-4-methoxy-5-[5-({[(1R)-1-(4-methylphenyl)ethyl]amino}methyl)-2-furyl]benzamide] | 233 |

Reference: patent US10654818B2, “Furane derivatives as inhibitors of ATAD2” (BAYER PHARMA AKTIENGESELLSCHAFT, priority 2015, dated 2020)
